Source: patent US7122335B1, “Compounds and methods to enhance rAAV transduction” (priority 1999, dated 2006)
“Also recorded” adds a separate entry of the source. Structures can show the parent of a compound that is named as a salt. Where two headings read alike, the source gives them in different places. Peptide text beside a SMILES is read from it.

Tests used:
Assay type in all cases: cell-based
[1] = test system: polarized human bronchial epithelial cells; settings: for rAAV transduction from the basolateral surface with ubiquitin ligase (E3) inhibitors: both dipeptides combined, 2 mM pretreatment 60 minutes, 0.2 mM during 24 hours infection; for rAAV transduction from the apical (mucosal) surface, in words: apical infection, agent at time of infection (LLnL 40 μM)
Procedure: FIGS. 7A and 7B. Proteasome inhibitors differentially augment rAAV transduction from the apical or basolateral surfaces of airway epithelia. The efficiency and time course of rAAV transduction were evaluated in polarized airway epithelial cultures following infection with rAV.GFPori3 (MOI=10,000 particles/cell) in the presence or absence of 40 μM LLnL. Transgene expression was monitored by indirect fluorescence microscopy at the indicted time points by quantifying the mean number of GFP positive cells per 10× field (mean +/−SEM of 3 independent samples for each time point). The effect of LLnL treatment was compared between matched sets of tissue samples at each time point following infection from the apical (FIG. 7A) or basolateral (FIG. 7B) surfaces. The photomicrographs on the right side of each figure illustrate representative 20× fields for the 3 and 22 day post-infection time points.
FIG. 9. Effects of different agents on AAV transduction from the basal surface of polarized bronchial epithelia. Fully differentiated human bronchial airway epithelia were treated with the indicated agents at the time of AAV infection (MOI=10,000 particles/cell) from the basolateral surface. […] Since most of the tested agents (except for hydroxyurea) were dissolved in DMSO, a vehicle control of 1% (vol/vol) DMSO was also performed to exclude the possibility of a non-specific effect. GFP expression was monitored at 48 hours post-infection by counting the number of GFP positive cells per 10 random 10× fields in the culture dishes. The data represent the mean +/−SEM of three independent infections for each tested chemical.
FIG. 10. The proteasome inhibitor LLnL preferentially induces AAV transduction in ciliated cells. The cell types transduced by AAV were examined by alkaline phosphatase staining 3 days following basolateral infection of polarized epithelial cultures with AV.Alkphos infection (MOI=10,000 particles/cell) in the presence of or absence of 40 μM LLnL. […] 8 μm paraffin sections were used to histologically quantify the types of cells transduced. Three classifications were used, ciliated cells (with alkphos expression localized to the apical membrane and cilia), basal cells residing in the lower half of the epithelium with no contact with the lumen, and non-ciliated, columnar cells. Panel C (without LLnL) and D (with LLnL) show representative neutral red counter-stained cross-sections for each condition. The numbers of alkphos stained cells/2000 epithelial cells for the various cell types transduced by AAV are presented in panel E (mean +/−SEM from three independent Millicell insert samples).
FIGS. 11A and 11B. Optimization of LLnL-enhanced transduction in polarized bronchial epithelia. Differentiated transwell cultures were infected with AV.GFP3ori (10,000 particles/cell) from either the basolateral (FIG. 11A) or the apical (FIG. 11B) surface with the indicated treatments involving LLnL and/or EGTA. All infections were carried out for 24 hours and GFP transgene expression was monitored by indirect fluorescent microscopy at the indicated times. Data represent the mean (+/−SEM, N=6) for each experimental condition. Experiments were performed in triplicate on transwells derived from samples obtained from two different patients. […]

[2] = test system: primary human fibroblasts
Procedure: FIG. 6. Primary confluent fibroblasts were infected with AV.GFP3ori virus at an MOI=1000 particles/cell following treatment with brefeldin A (10 μg/ml), vinblastine (22 μM), cytochalasin B (1 μM), NH4Cl (2 mM), chloroquine (20 μm), LLnL (400 μM), and Z-LLL (4 μM), final concentration indicated in brackets. Cells were harvested at 96 hours post-infection and the transduction efficiency was compared to untreated rAAV infected cells by FACS analysis for GFP expression. To control for non-specific effects caused by toxicity of the compounds, the percentage of live cells was also assessed by the absence of propidium iodide incorporation.
80% confluent human primary fibroblasts were infected with AV.GFP3ori at an moi of 1000 DNA particles/cell. FIG. 16A depicts GFP transgene expression in the absence (left photographs) and presence of 40 μM LLnL (right photographs) at 96 hours post-infection. […] Top and bottom panels represent bright field and FITC-channel fluorescent photomicrographs, respectively. The mean (+/−SEM, N=3) percentage of cells transduced with rAAV, as measured by FACS sorting of GFP expressing cells, is presented in the bar graph of FIG. 16B. […] In this study, rAAV from infected cells was first immunoprecipitated with anti-VP1,2,3 (AAV-2 capsid) monoclonal antibody followed by Western blot detection of ubiquitin side chains using an anti-ubiquitin monoclonal antibody. […] Epithelia were infected with AV.GFP3ori (10,000 particles/cell) from the basolateral surface following treatment with ubiquitin ligase inhibitor dipeptides (0.2 mM H-Leu-Ala-OH and 0.2 mM H-His-Ala-OH).
Initial studies were performed in confluent primary human fibroblasts since dose titrations and toxicity could be quickly assessed. Selected compounds were used to treat fibroblast monolayers prior to rAAV infection. rAAV transduction was assessed at 96 hours post-infection by FACS analysis, and the percentage of dead cells was simultaneously assessed by incorporation of propidium iodide.
These tripeptides are structurally related to chloroquine but have different lipid solubility and specificity for cysteine proteases (Seglen, 1983). These molecules decrease endosomal degradation of molecules by a mechanism different than altering pH.
Transduction of polarized airway epithelial cells and primary human fibroblasts. rAAV infection of fully differentiated bronchial cells was performed as described in Duan et al. (1998). For infections from the apical surface of the airway cells, 5 μl rAAV was mixed with 50 μl of culture media and applied directly onto the apical compartment of Millicell inserts (MOI=10,000 particles/cell). During apical infection, the basolateral side of the Millicell was continuously bathed in culture media. Gene transfer to the basal side was performed by inverting Millicell inserts and applying viral vector to the bottom of the supporting filter membrane in a 50 μl volume for 2 hours. Subsequently, Millicell inserts were returned to the upright position, in the continued presence of the original viral inoculum plus an additional 450 μl of media. For both apical and basolateral infections, rAAV containing media was removed after 24 hours and replaced with either fresh culture media (for the basal side) or exposed to air (for the apical side). To test the effect of different agents on the efficiency of AAV transduction in polarized airway cells, 1 μl of each solution was mixed with AAV prior to infection of airway epithelia. Agents were usually presented during the 24 hours AAV infection period unless indicated otherwise.

[3] = test system: human bronchial epithelia; assay: Southern blot of Hirt DNA for rAAV genomes in polarized airway epithelia; settings: hypotonic EGTA treatment alone, apical infection
Procedure: FIGS. 15A–C. Examination of rAAV endocytosis by Southern blot analysis of viral DNA. Hirt DNA from AV.GFP3ori infected or mock infected (Lanes 1 and 7 in both FIGS. 15A and 15B) human bronchial epithelia were extracted for a direct examination of viral genomes by Southern blotting against a P^32-labeled EGFP probe. FIG. 15A depicts viral binding studies in the presence and absence of LLnL with or without EGTA treatment prior to apical or basolateral infection for 1 hour at 4° C. Cell surface-bound virus was completely removed by trypsin (FIG. 15A, lanes 2 through 6). To determine the amount of the surface-bound rAVV, cells were infected with AV.GFP3ori for 1 hour at 4° C. and were not treated with trypsin prior to Hirt DNA extraction. Panel A: lane 8: apical AAV infection; lane 9: apical AAV infection in the presence of LLnL; lane 10: cells were pre-treated with hypotonic EGTA prior to apical infection in the presence of LLnL; lane 11: basolateral infection; lane 12: basolateral infection in the presence of LLnL. FIG. 15B depicts the results of studies evaluating rAAV internalization from either the apical or the basolateral surface in the presence or absence of LLnL, and the internalization from the apical surface after combined treatment with hypotonic EGTA and LLnL. To detect the net amount of the internalized viral genome, all samples in FIG. 15B were treated with trypsin just before Hirt DNA was harvested. The extent of the internalized virus at 4 hours (FIG. 15B, lanes 2 through 6) and 24 hours (FIG. 15B, lanes 8 through 12) incubation at 37° C. after infection is represented by the intensity of the 1.6 kb single stranded viral genome band. FIG. 15B; lane 2; apical AAV infection for 4 hours; lane 3: apical AAV infection in the presence of LLnL for 4 hours; lane 4: cells were pre-treated with hypotonic EGTA prior to apical infection in the presence of LLnL for 4 hours; lane 5: basal infection for 4 hours; lane 6: basolateral infection in the presence of LLnL for 4 hours; lane 8: apical infection for 24 hours; lane 9: apical infection in the presence of LLnL for 24 hours; lane 10: cells were pre-treated with hypotonic EGTA prior to apical infection in the presence of LLnL for 24 hours; lane 11: basolateral infection for 24 hours; lane 12: basolateral infection in the presence of LLnL for 24 hours. […]
Molecular analysis of rAAV viral genomes owing infection of polarized airway epithelial cultures. […] Following binding, the extent of viral internalization was assessed by continuing incubations in the presence of virus at 37° C. for 4–24 hours. […] The 1.6 kb single stranded viral DNA, the 2.7 kb double stranded circular intermediate, and the 4.7 kb double stranded replication from viral genome were detected with a transgene EGFP specific probe at 5×10^6 cpm/ml. […]

[4] = confluent fibroblasts, AV.GFP3ori MOI 1000, 96 hours post-infection, brefeldin A 10 μg/ml, vinblastine 22 μM, cytochalasin B 1 μM, NH4Cl 2 mM, chloroquine 20 μm, LLnL 400 μM, Z-LLL 4 μM

`C[C@H](NC(=O)[C@@H](N)Cc1cnc[nH]1)C(=O)O` [H-His-Ala-OH] (H-His-Ala-OH) was tested, and the “rAAV transduction from the basolateral surface with ubiquitin ligase (E3) inhibitors” value [1] was “enhanced rAAV transduction”.
`C[C@H]1CCC/C=C/[C@@H]2C[C@H](O)C[C@H]2[C@H](O)/C=C/C(=O)O1` [BFA, brefeldin A] was tested, and the “rAAV transduction (GFP expression) compared to untreated rAAV infected cells” value [2, 4] was “significant enhancement of rAAV transduction”.
In the case of `O=C(O)CN(CCOCCOCCN(CC(=O)O)CC(=O)O)CC(=O)O` [EGTA], the “increase in persistence of AAV DNA” value [3] is reported as “less than 4 fold”.
With `O=c1c(-c2ccc(O)cc2)coc2cc(O)cc(O)c12` [genistein] the “rAAV transduction from the apical (mucosal) surface, in words” value (shortened to “rAAV transduction from the apical”) [1] was “none of these agents facilitated rAAV transduction from the apical surface”.
For `Cl.N` [NH4Cl], the “rAAV transduction (GFP expression) compared to untreated rAAV infected cells” value [2] was “significantly inhibited rAAV transduction”.
For `C=C1[C@@H](C)[C@H]2[C@H](Cc3ccccc3)NC(=O)[C@]23OC(=O)/C=C/[C@H](O)CCC[C@@H](C)C/C=C/[C@H]3[C@@H]1O` [cytochalasin B], the “rAAV transduction (GFP expression) compared to untreated rAAV infected cells” value [2, 4] was “significant decrease in rAAV transduction”.
With `COc1cc([C@@H]2c3cc4c(cc3[C@@H](O[C@@H]3O[C@@H]5CO[C@@H](C)O[C@H]5[C@H](O)[C@H]3O)[C@H]3COC(=O)[C@H]23)OCO4)cc(OC)c1O` [etoposide] the “rAAV transduction from the apical” value [1] was “none of these agents facilitated rAAV transduction from the apical surface”.
`CC(C)C[C@H](N)C(=O)N[C@@H](C)C(=O)O` [H-Leu-Ala-OH] (H-Leu-Ala-OH) was tested, and the “rAAV transduction from the basolateral surface with ubiquitin ligase (E3) inhibitors” value [1] was “enhanced rAAV transduction”.
`CCN(CC)CCCC(C)Nc1ccnc2cc(Cl)ccc12` (stereo not drawn) [chloroquine] was tested, and the “rAAV transduction (GFP expression) compared to untreated rAAV infected cells” value [2, 4] was “significantly inhibited rAAV transduction”.
`NC(=O)NO` [hydroxyurea] was tested, and the “rAAV transduction from the apical” value [1] was “none of these agents facilitated rAAV transduction from the apical surface”.
With `CC[C@@]1(O)C(=O)OCc2c1cc1n(c2=O)Cc2cc3ccccc3nc2-1` [camptothecin] the “rAAV transduction from the apical” value [1] was “none of these agents facilitated rAAV transduction from the apical surface”.
In the case of `CC[C@]1(O)C[C@@H]2CN(CCc3c([nH]c4ccccc34)[C@@](C(=O)OC)(c3cc4c(cc3OC)N(C)[C@H]3[C@@](O)(C(=O)OC)[C@H](OC(C)=O)[C@]5(CC)C=CCN6CC[C@]43[C@@H]65)C2)C1` [vinblastine, vinblastine sulfate], the “rAAV transduction (GFP expression) compared to untreated rAAV infected cells” value [2, 4] is reported as “little effect on rAAV transduction; also recorded: did not inhibit rAAV-2 transduction”.
